One may read the GI50 as the concentration giving 50% growth inhibition.

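Cultured in 96-well plates, cells were exposed to test compound for 48 hours across five concentrations. Here, GI50 denotes the concentration required for 50% inhibition of growth.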 Active and inactive are the calls of the source. No stated cut-off is given here; in the data, active = GI50 up to about 1.1 µM and inactive = higher.

The text below walks through data of ChEMBL document CHEMBL1201862, “PubChem BioAssay data set” (2004).

Test systems include HOP-92; SN12C; MDA-MB-435; SK-MEL-2; NCI-H23; OVCAR-5; SF-268; OVCAR-8; MDA-MB-231; KM12; IGROV-1; UACC-62; RXF 393; COLO 205; HCT-15; Hs-578T; A549; M14; UACC-257; CCRF-CEM.
What all share (assay): DTP human tumour cell line panel, 48 h

Take `O=C(O)C(Oc1nc(S)nc(S)n1)(c1ccc(Cl)cc1)c1ccc(Cl)cc1`: the GI50 in the test with HOP-92, with SN12C, in the test on MDA-MB-435, in the test with SK-MEL-2, in the test on NCI-H23 and with OVCAR-5 was > 100 µM (inactive) throughout. Besides, the GI50 in the test with SF-268, in the test with OVCAR-8, in the test on MDA-MB-231, in the test with KM12, in the test with IGROV-1 and in the test on UACC-62 was > 100 µM (inactive) throughout. Besides, the GI50 in the test with RXF 393 was > 100 µM (inactive); with COLO 205 it was > 100 µM (inactive); with HCT-15, greater than 100 µM; in the test with Hs-578T, > 100 µM (inactive); in the test on A549 it was > 100 µM (inactive); in the test on M14, > 100 µM (inactive). Further, the GI50 in the test with UACC-257 is > 100 µM (inactive).
Turning to `COC(=O)CCc1cc(OC)c2oc(-c3ccc(OC)c(OC)c3)c(CO)c2c1`, the GI50 was > 100 µM (inactive) in the test with HOP-92; > 100 µM (inactive) with SN12C; > 100 µM (inactive) in the test with MDA-MB-435; 65 µM (inactive) in the test on SK-MEL-2; > 100 µM (inactive) in the test with NCI-H23; > 100 µM (inactive) with OVCAR-5. Also, the GI50 with SF-268, in the test with OVCAR-8, with CCRF-CEM, in the test with MDA-MB-231, in the test on KM12 and with IGROV-1 was > 100 µM (inactive) in each case. In addition, the GI50 was > 100 µM (inactive) with UACC-62; > 100 µM (inactive) in the test with COLO 205; greater than 100 µM with HCT-15; > 100 µM (inactive) in the test with Hs-578T; > 100 µM (inactive) with A549; > 100 µM (inactive) in the test with M14. Moreover, in the test on UACC-257, the GI50 was > 100 µM (inactive).
As for `C=C1CC(CN2CCC(=O)NC2=O)(c2ccccc2)OC1=O` (stereo not drawn), the GI50 with HOP-92 is 1.45 µM (inactive); in the test on SN12C it was 17.6 µM (inactive); in the test on MDA-MB-435, 8.89 µM (inactive); in the test on SK-MEL-2, 12.6 µM (inactive); in the test on NCI-H23 it was 7.18 µM (inactive); with OVCAR-5, 15.1 µM (inactive). In addition, the GI50 with SF-268 was 23.6 µM (inactive); in the test on OVCAR-8, 16.4 µM (inactive); with CCRF-CEM it was 1.84 µM (inactive); with MDA-MB-231 it was 15 µM (inactive); in the test with KM12, 20.9 µM (inactive); in the test with IGROV-1, 7.87 µM (inactive). Besides, the GI50 is 8.55 µM (inactive) with UACC-62; 2.36 µM (inactive) in the test with COLO 205; 4.98 µM in the test on HCT-15; 16.1 µM (inactive) in the test on Hs-578T; 16.9 µM (inactive) with A549; 3.08 µM (inactive) in the test with M14. Further, the GI50 with UACC-257 is 8.99 µM (inactive).
Regarding `Brc1cc2nn(-c3ccccc3)nc2c2nonc12`, the GI50 in the test on HOP-92, in the test on SN12C, in the test on MDA-MB-435, in the test with SK-MEL-2, in the test on NCI-H23 and in the test with OVCAR-5 was > 100 µM (inactive) throughout. For the same compound, the GI50 with SF-268, in the test on OVCAR-8, in the test on CCRF-CEM, in the test with MDA-MB-231, with KM12 and with IGROV-1 was > 100 µM (inactive) each time. The GI50 with UACC-62 was > 100 µM (inactive); with COLO 205, > 100 µM (inactive); in the test on HCT-15, greater than 100 µM; in the test with Hs-578T it was > 100 µM (inactive); in the test with A549, > 100 µM (inactive); in the test with M14 it was > 100 µM (inactive). Moreover, the GI50 in the test on UACC-257 was > 100 µM (inactive).
On to `CN[C@@H](C)[C@H](OP(=O)(O)OC1[C@@H](O)[C@H](O)C(O)[C@H](O)[C@@H]1O)c1ccccc1` (stereo partly drawn), for which the GI50 with HOP-92, in the test on SN12C, with MDA-MB-435, in the test with SK-MEL-2, with NCI-H23 and in the test with OVCAR-5 was > 100 µM (inactive) each time. For the same compound, the GI50 in the test on SF-268, with OVCAR-8, with CCRF-CEM, in the test on MDA-MB-231, in the test on KM12 and in the test with IGROV-1 was > 100 µM (inactive) in each case. Moreover, the GI50 is > 100 µM (inactive) with UACC-62; > 100 µM (inactive) in the test on COLO 205; greater than 100 µM with HCT-15; > 100 µM (inactive) in the test on Hs-578T; > 100 µM (inactive) with A549; > 100 µM (inactive) in the test with M14. For the same compound, the GI50 with UACC-257 is > 100 µM (inactive).
Turning to `O=S1(=O)NC2CCC3NS(=O)(=O)NC4CCC(N1)N4S(=O)(=O)N23` (stereo not drawn), the GI50 with HOP-92, in the test with SN12C, in the test with MDA-MB-435, in the test on SK-MEL-2, with NCI-H23 and in the test on OVCAR-5 was > 100 µM (inactive) in each case. Further, the GI50 in the test with SF-268, with OVCAR-8, in the test with MDA-MB-231, in the test with KM12, in the test with IGROV-1 and in the test on UACC-62 was > 100 µM (inactive) in each case. Besides, the GI50 with RXF 393 is > 100 µM (inactive); in the test on COLO 205, > 100 µM (inactive); in the test with HCT-15, greater than 100 µM; in the test on Hs-578T, > 100 µM (inactive); in the test on A549, > 100 µM (inactive); with M14 it was > 100 µM (inactive). The GI50 in the test with UACC-257 was > 100 µM (inactive).
As for `COc1ccc(P2(=S)Oc3ccccc3-c3ccccc3O2)cc1`, the GI50 was 4.18 µM (inactive) in the test with HOP-92; 0.37 µM (active) with SN12C; 0.144 µM (active) in the test with MDA-MB-435; 0.596 µM (active) with SK-MEL-2; 0.579 µM (active) in the test with NCI-H23; > 100 µM (inactive) in the test with OVCAR-5. Moreover, the GI50 was 1.5 µM (inactive) with SF-268; 0.802 µM (active) in the test on OVCAR-8; 0.356 µM (active) with CCRF-CEM; 0.439 µM (active) with MDA-MB-231; 0.499 µM (active) in the test with KM12; 0.394 µM (active) with IGROV-1. For the same compound, the GI50 with UACC-62 was 0.733 µM (active); in the test on COLO 205 it was 0.343 µM (active); in the test with HCT-15, 0.48 µM; in the test with Hs-578T it was 0.466 µM (active); in the test with A549 it was 0.449 µM (active); with M14, 0.574 µM (active). For the same compound, in the test on UACC-257, the GI50 is 1.35 µM (inactive).
For `Cc1ccc2c(c1)C(O)(c1ccccc1)CCS2` (stereo not drawn), the GI50 in the test on HOP-92 is 17.7 µM (inactive); with SN12C, 32.6 µM (inactive); in the test on MDA-MB-435, 27.7 µM (inactive); with SK-MEL-2 it was 25.2 µM (inactive); with NCI-H23 it was 28.5 µM (inactive); with OVCAR-5, 27.6 µM (inactive). The GI50 in the test on SF-268 is 38.4 µM (inactive); in the test with OVCAR-8, 36.7 µM (inactive); in the test on MDA-MB-231 it was 18 µM (inactive); with KM12, 22.6 µM (inactive); with IGROV-1, 20.6 µM (inactive); in the test with UACC-62, 22.4 µM (inactive). For the same compound, the GI50 is 68.5 µM (inactive) in the test on RXF 393; 30.3 µM (inactive) in the test with COLO 205; 19.5 µM in the test with HCT-15; 34.1 µM (inactive) in the test with Hs-578T; 32.8 µM (inactive) in the test on A549; 25.4 µM (inactive) with M14. Besides, the GI50 with UACC-257 is 42 µM (inactive).
For `Oc1cc(-c2cccc(Cl)c2)nc2cc3c(cc12)OCO3`, the GI50 in the test on HOP-92 was 0.951 µM (active); in the test with SN12C it was 0.912 µM (active); in the test with MDA-MB-435, 0.0377 µM (active); with SK-MEL-2, 0.207 µM (active); in the test on NCI-H23, 0.951 µM (active); in the test on OVCAR-5 it was 18.8 µM (inactive). Further, the GI50 in the test with OVCAR-8 was 0.647 µM (active); in the test on CCRF-CEM, 0.519 µM (active); in the test on MDA-MB-231, 2.44 µM (inactive); in the test with KM12, 0.24 µM (active); in the test with IGROV-1, 0.151 µM (active); in the test with UACC-62 it was 0.201 µM (active). The GI50 in the test with COLO 205 was 1.85 µM (inactive); in the test with HCT-15, 0.269 µM; with Hs-578T, 0.255 µM (active); in the test on A549, 2.47 µM (inactive); with M14, 0.179 µM (active); with UACC-257 it was 0.366 µM (active).
For `CC(=O)O[C@@]12CO[C@@H]1C[C@H](O)[C@@]1(C)C(=O)[C@H](O)C3=C(C)[C@@H](OC(=O)[C@H](O)[C@@H](NC(=O)OC(C)(C)C)c4ccccc4)C[C@@](O)([C@@H](OC(=O)c4ccccc4)[C@H]21)C3(C)C` [DOCETAXEL], the GI50 in the test on HOP-92 is 9.04 µM (inactive); with SN12C, < 0.01 µM (active); in the test on MDA-MB-435 it was 0.000149 µM (active); in the test with NCI-H23 it was < 0.01 µM (active); in the test with OVCAR-5, < 0.01 µM (active); with SF-268, < 0.01 µM (active). For the same compound, the 50% growth inhibitory concentration (GI50) in the test on OVCAR-8 was < 0.01 µM (active); in the test with CCRF-CEM, < 0.01 µM (active); in the test with MDA-MB-231 it was 0.0216 µM (active); in the test on KM12, < 0.01 µM (active); in the test on IGROV-1, < 0.01 µM (active); in the test on UACC-62 it was < 0.01 µM (active). Further, the GI50 in the test with RXF 393 is 0.242 µM (active); in the test with COLO 205, < 0.01 µM (active); in the test with HCT-15, 0.0493 µM; with Hs-578T, 0.00104 µM (active); in the test on A549, < 0.01 µM (active); with UACC-257 it was 0.455 µM (active).
